Data taken from patent US20050203067A1, “Pesticidal compositions and methods” (priority 2003, published 2005).
In brackets after ≈: the same amount, converted by molar mass. Several values for one entry are separate records, joined by “and”; a condition that tells them apart may be missing. Equal entries are not always repeated. Entries after “also recorded” stand apart in the source; their conditions may differ. Where two headings read alike, the source gives them in different places.

Columns and labels:
[1] = system: C. elegans (strain N2); experiment: C. elegans contact assay (NGM-agar, 24-well); format: in vivo
[2] = system: Cephalobus sp.; experiment: Nematicidal activity against other nematodes (F1 phenotype); format: in vivo
[3] = system: C. elegans; experiment: Nematicidal activity of ethanolamine-like compounds on NGM plates (L4 P0, F1 phenotype); format: in vivo, Caenorhabditis elegans
[4] = system: A. ellesmerensis; experiment: Nematicidal activity against other nematodes (F1 phenotype); format: in vivo, Acrobiloides ellesmerensis
[5] = system: C. elegans; experiment: C. elegans liquid (well) assay; format: in vivo; conditions: Caenorhabditis elegans, read-out: Well EC50
[6] = system: C. elegans; experiment: C. elegans agar (plate) assay; format: in vivo; conditions: Caenorhabditis elegans, read-out: Plate EC50
[7] = system: cucumber seedling; experiment: Miniaturized greenhouse assay, phytotoxicity rating; conditions: for Ptox 40 (phytotoxicity rating): 40 ppm; for Ptox 200 (phytotoxicity rating): 200 ppm
[8] = system: Meloidogyne incognita J2 larvae; experiment: Miniaturized greenhouse assay on cucumber seedlings, root gall rating; format: in vivo; conditions: for Gall 40 (gall rating): 40 ppm; for Gall 200 (gall rating): 200 ppm
[9] = biological target: P. falciparum PEAMT (Plasmodium falciparum, UniProt Q8IDQ9); conditions: cited from earlier work
[10] = system: P. falciparum; conditions: cited from earlier work
[11] = system: C. elegans PEAMT2 RNAi-generated mutants; conditions: in vivo
[12] = system: C. elegans PEAMT1 RNAi-generated mutants; format: in vivo; conditions: for rescue of PEAMT1 mutants: 5 mM
[13] = L4 P0 on NGM plates, 23° C., visual observation over several days
[14] = Caenorhabditis elegans, average number of adults in 4 replicate wells 96 hours after challenge, 20° C., read-out: EC50
[15] = rating scale 0-3 (% plant weight reduction)
[16] = 10 days after inoculation, rating scale 0-3 (% root mass galled)

P. falciparum PEAMT, sequence (Q8IDQ9 whole entry): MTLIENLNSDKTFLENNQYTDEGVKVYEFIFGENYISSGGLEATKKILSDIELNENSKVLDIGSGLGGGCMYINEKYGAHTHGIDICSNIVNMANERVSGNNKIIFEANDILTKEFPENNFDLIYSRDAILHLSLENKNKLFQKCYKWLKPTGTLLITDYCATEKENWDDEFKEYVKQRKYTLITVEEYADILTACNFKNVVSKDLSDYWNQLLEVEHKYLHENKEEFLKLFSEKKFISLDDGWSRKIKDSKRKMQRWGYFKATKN

## O=S(=O)(F)CCn1cnc2ccccc21 [Compound 3747, 2-Benzoimidazol-1-yl-ethanesulfonyl fluoride]
[1]; in vivo, read-out: EC50
  EC50: 1400 µM

## CC(C)(C)NCCO [Compound 3703, 2-(tert-Butylamino)ethanol]
[2]; Cephalobus sp., 10 mM
  F1 PHENOTYPE: L1/L2 arrest/lethality
[3]; C. elegans, 10 mM
  F1 PHENOTYPE: L1/L2 arrest/lethality
[3]; [13]
  nematicidal activity against C. elegans: showed nematicidal activity
[4]; A. ellesmerensis, 10 mM
  F1 PHENOTYPE: L1/L2 arrest/lethality
[1]; [14]
  EC50: 4100 µM

## CN(C)c1ccc(C(=O)c2ccccc2)cc1 [DC3890, (4-Dimethylamino-phenyl)-phenyl-methanone]
[5]; liquid (well) assay, 20° C.
  EC50: 12 µg/mL (≈ 53.3 µM)

## O=C1CCC(=O)N1CCS(=O)(=O)F [Compound 3743, 2,5-Dioxo-1-pyrrolidineethanesulfonyl fluoride]
[1]; in vivo, read-out: EC50
  EC50: 1300 µM

## COc1ccc(NCCS(=O)(=O)F)cc1 [Compound 3736, 2-4-methoxy-phenylaminoethanesulfonyl fluoride]
[1]; in vivo, read-out: EC50
  EC50: 500 µM

## CN(C)c1ccc(/N=N/c2ccccc2)cc1 [DC3783, Dimethyl-(4-phenylazo-phenyl)-amine]
[5]
  EC50: 0.4 to 0.78 µg/mL (≈ 1.78 to 3.46 µM)
[6]
  EC50: 1.6 µg/mL (≈ 7.1 µM)

## OCCNCc1ccccc1 [Compound 3702, 2-Benzylaminoethanol]
[1]; [14]
  EC50: 3400 µM

## CN(C)c1ccc(/N=N/c2cccc(Cl)c2)cc1 [DC3853, [4-(3-Chloro-phenylazo)-phenyl]-dimethyl-amine]
[5]; liquid (well) assay, 20° C.
  EC50: 0.4 µg/mL (≈ 1.54 µM)
[6]; agar (plate) assay, 20° C.
  EC50: 0.4 µg/mL (≈ 1.54 µM)

## CN1CCCc2cc(/N=N/c3ccc(Br)cc3)ccc21 [DC3819, (4-Bromo-phenyl)-(1-methyl-1,2,3,4-tetrahydro-quinolin-6-yl)-diazene]
[5]; liquid (well) assay, 20° C.
  EC50: 0.4 to 0.8 µg/mL (≈ 1.21 to 2.42 µM)
[6]; agar (plate) assay, 20° C.
  EC50: 0.8 µg/mL (≈ 2.42 µM)

## N[C@@H](CO)Cc1ccccc1 [Compound 3704, D-Phenylalaninol]
[2]; in vivo
  F1 PHENOTYPE: L1/L2 arrest/lethality
[3]; in vivo
  F1 PHENOTYPE: L1/L2 arrest/lethality
  nematicidal activity against C. elegans: showed nematicidal activity
[4]; in vivo
  F1 PHENOTYPE: L1/L2 arrest/lethality
[1]; Caenorhabditis elegans, 96 h
  EC50: 2500 µM

## CN(C)c1ccc(/N=N/c2ccccn2)c(O)c1 [DC3829, 5-Dimethylamino-2-(pyridin-2-ylazo)-phenol]
[5]; liquid (well) assay, 20° C.
  EC50: 6.2 to 12.5 µg/mL (≈ 25.6 to 51.6 µM)
[6]; agar (plate) assay, 20° C.
  EC50: 3.2 µg/mL (≈ 13.2 µM)

## O=S(=O)(F)CCn1nnc2ccccc21 [Compound 3745, 2-Benzotriazol-1-yl-ethanesulfonylfluoride]
[1]; in vivo, read-out: EC50
  EC50: 1700 µM and 1340 µM

## O=C1CSC(=S)N1c1ccc(/N=N/c2ccc([N+](=O)[O-])cc2)cc1 [DC3833, 3-[4-(4-Nitro-phenylazo)-phenyl]-2-thioxo-thiazolidin-4-one]
[5]; liquid (well) assay, 20° C.
  EC50: 12.5 to 25 µg/mL (≈ 34.9 to 69.8 µM)
[6]; agar (plate) assay, 20° C.
  EC50: 6.2 µg/mL (≈ 17.3 µM)

## Cc1cc(N(C)C)ccc1/N=N/c1ccccc1 [DC3787, Dimethyl-(3-methyl-4-phenylazo-phenyl)-amine]
[5]; liquid (well) assay, 20° C.
  EC50: 0.4 to 0.78 µg/mL (≈ 1.67 to 3.26 µM)
[6]; agar (plate) assay, 20° C.
  EC50: 1.6 µg/mL (≈ 6.69 µM)

## O=[N+]([O-])c1ccc(N=Nc2ccccc2)cc1 [DC3898, (4-Nitro-phenyl)-phenyl-diazene]
[5]; liquid (well) assay, 20° C.
  EC50: 1.6 µg/mL (≈ 7.04 µM)

## CCNc1ccc(/N=N/c2ccc(Br)cc2)cc1 [DC3800, [4-(4-Bromo-phenylazo)-phenyl]-ethyl-amine]
[7]; [15]
  Ptox 40 (phytotoxicity rating): 0.00
  Ptox 200 (phytotoxicity rating): 2.67
[8]; [16]
  Gall 40 (gall rating): 1.33
  Gall 200 (gall rating): 0.00
[5]; liquid (well) assay, 20° C.
  EC50: 0.2 to 0.4 µg/mL (≈ 0.657 to 1.31 µM)
[6]; agar (plate) assay, 20° C.
  EC50: 0.4 µg/mL (≈ 1.31 µM)

## CN(C)c1ccc(/N=N/c2ccccn2)cc1 [DC3791, Dimethyl-[4-(pyridin-2-ylazo)-phenyl]-amine]
[5]; liquid (well) assay, 20° C.
  EC50: 25 to 50 µg/mL (≈ 110 to 221 µM)
[6]; agar (plate) assay, 20° C.
  EC50: 12.5 to 25 µg/mL (≈ 55.2 to 110 µM)

## CNc1ccc(N=Nc2ccccc2)cc1 [DC3845, Methyl-(4-phenylazo-phenyl)-amine]
[7]
  Ptox 40 (phytotoxicity rating): 1.00
  Ptox 200 (phytotoxicity rating): 3.00
[8]
  Gall 40 (gall rating): 0.33
  Gall 200 (gall rating): 0.00
[5]
  EC50: 0.4 to 0.8 µg/mL (≈ 1.89 to 3.79 µM)
[6]
  EC50: 0.4 µg/mL (≈ 1.89 µM)

## Cc1ccc(/N=N/c2ccc(N(C)C)cc2)cc1 [DC3785, Dimethyl-(4-p-tolylazo-phenyl)-amine]
[5]; liquid (well) assay, 20° C.
  EC50: 6.3 to 12.5 µg/mL (≈ 26.3 to 52.2 µM)
[6]; agar (plate) assay, 20° C.
  EC50: > 100 µg/mL

## CCN(C)c1ccc(/N=N/c2ccccc2)cc1 [Compound 3761, 4-N-ethyl-N-methylaminoazobenzene]
[7]; [15]
  Ptox 40 (phytotoxicity rating): 0.00
  Ptox 200 (phytotoxicity rating): 1.00
[8]; [16]
  Gall 40 (gall rating): 0.67
  Gall 200 (gall rating): 0.00
[5]; liquid (well) assay, 20° C.
  EC50: 6.3 to 12.5 µg/mL (≈ 26.3 to 52.2 µM)
[6]; agar (plate) assay, 20° C.
  EC50: 0.8 µg/mL (≈ 3.34 µM)
[1]; [14]
  EC50: 7 µM

## CN(C)c1ccc(/N=N/c2ccc(NCCS(=O)(=O)F)cc2)cc1 [Compound 3767, 2-[4-(4-dimethylamino-phenylazo)-phenylamino]-ethanesulfonyl fluoride]
[1]; Caenorhabditis elegans, 96 h
  EC50: 7 µM

## CCNc1ccc(/N=N/c2ccc(C)cc2)cc1 [DC3801, Ethyl-(4-p-tolylazo-phenyl)-amine]
[7]; [15]
  Ptox 40 (phytotoxicity rating): 1.67
  Ptox 200 (phytotoxicity rating): 3.00
[8]; [16]
  Gall 40 (gall rating): 1.33
  Gall 200 (gall rating): 0.00
[5]; liquid (well) assay, 20° C.
  EC50: 0.2 to 0.4 µg/mL (≈ 0.836 to 1.67 µM)
[6]; agar (plate) assay, 20° C.
  EC50: 0.4 µg/mL (≈ 1.67 µM)

## NCC(O)c1ccccc1 (stereo not drawn) [2-amino-1-phenylethanol]
[3]; C. elegans, 25 mM
  F1 PHENOTYPE: Wild-type development
[3]; [13]
  nematicidal activity against C. elegans: no nematicidal effect

## O=S(=O)(F)CCNc1ccccc1 [Compound 3754, 2-phenylaminoethanesulfonyl fluoride]
[1]; in vivo, read-out: EC50
  EC50: 940 µM and 570 µM

## CN(C)c1ccc(/C=C/C(=O)c2ccccc2)cc1 [DC3901, 3-(4-Dimethylamino-phenyl)-1-phenyl-propenone]
[5]; liquid (well) assay, 20° C.
  EC50: 12.5 µg/mL (≈ 49.7 µM)

## CCNc1ccccc1 [Compound 3766, N-ethylaniline]
[1]; [14]
  EC50: 360 µM

## CC(=O)Nc1ccc(/N=N/c2ccccc2)cc1Cl [DC3796, N-(2-Chloro-4-phenylazo-phenyl)-acetamide]
[5]; liquid (well) assay, 20° C.
  EC50: 3.2 to 6.3 µg/mL (≈ 11.7 to 23 µM)
[6]; agar (plate) assay, 20° C.
  EC50: 6.3 µg/mL (≈ 23 µM)

## O=[N+]([O-])c1ccc(/N=N/c2ccc(O)cc2)cc1 [DC3844, 4-(4-Nitro-phenylazo)-phenol]
[5]; liquid (well) assay, 20° C.
  EC50: 3.1 to 6.2 µg/mL (≈ 12.7 to 25.5 µM)
[6]; agar (plate) assay, 20° C.
  EC50: 6.25 µg/mL (≈ 25.7 µM)

## OCCNc1ccccc1 [Compound 3733, N-(2-Hydroxyethyl)aniline]
[3]; C. elegans, 10 mM
  F1 PHENOTYPE: L1/L2 arrest/lethality
[3]; [13]
  nematicidal activity against C. elegans: showed nematicidal activity
[1]; [14]
  EC50: 4200 µM

## 2-[(4-phenylazo)phenylanilino]ethanesulfonamide [Compound 3770]
[1]; average number of adults in 4 replicate wells 96 hours after challenge, 20° C., read-out: EC50
  EC50: 20 µM

## CCCCCCCCCCCCCCCCOP(=O)([O-])OCC[N+](C)(C)C [miltefosine]
[9]
  inhibition of the plasmodium PEAMT enzyme: inhibited
[10]
  parasite proliferation within human erythrocytes: inhibits parasite proliferation

## NCCO [EA, ethanolamine]
[11]
  F1 phenotype PEAMT2 dsRNA: L1/L2 arrest/lethality
[12]; in vivo
  F1 phenotype PEAMT1 dsRNA: L1/L2 arrest/lethality

## Cc1ccccc1/N=N/c1ccc(N(C)C)cc1 [DC3832, Dimethyl-(4-o-tolylazo-phenyl)-amine]
[5]; liquid (well) assay, 20° C.
  EC50: 1.5 to 3.1 µg/mL (≈ 6.27 to 13 µM)
[6]; agar (plate) assay, 20° C.
  EC50: 1.6 µg/mL (≈ 6.69 µM)

## CNCCO [MME, monomethylethanolamine]
[11]
  F1 phenotype PEAMT2 dsRNA: L1/L2 arrest/lethality
[12]
  rescue of PEAMT1 mutants: rescued
[12]; in vivo
  F1 phenotype PEAMT1 dsRNA: Fertile adults

## CN(C)CCO [DME, dimethylethanolamine]
[11]
  F1 phenotype PEAMT2 dsRNA: Sterility; also recorded: L1/L2 arrest/lethality
[12]
  rescue of PEAMT1 mutants: rescued
[12]; in vivo
  F1 phenotype PEAMT1 dsRNA: Fertile adults
  rescue of the sterility associated with PEAMT1 RNAi: rescues the sterility

## O=S(=O)(F)CCNc1ccc(Cl)cc1 [Compound 3738, 2-4-chlorophenylaminoethanesulfonyl fluoride]
[1]; in vivo, read-out: EC50
  EC50: 82 µM

## O=C1C=CC(=O)N1c1ccc(/N=N/c2ccccc2)cc1 [DC3792, 1-(4-Phenylazo-phenyl)-pyrrole-2,5-dione]
[5]; liquid (well) assay, 20° C.
  EC50: 3.2 to 6.3 µg/mL (≈ 11.5 to 22.7 µM)
[6]; agar (plate) assay, 20° C.
  EC50: > 100 µg/mL

## COc1ccc(/N=N/c2ccc3c(c2)CCCN3C)cc1 [DC3821, (4-Methoxy-phenyl)-(1-methyl-1,2,3,4-tetrahydro-quinolin-6-yl)-diazene]
[5]; liquid (well) assay, 20° C.
  EC50: 0.8 to 1.6 µg/mL (≈ 2.84 to 5.69 µM)
[6]; agar (plate) assay, 20° C.
  EC50: 1.6 µg/mL (≈ 5.69 µM)
